Data: patent US20080207766A1, “METHODS AND COMPOSITIONS FOR TREATING AT LEAST ONE UPPER GASTROINTESTINAL SYMPTOM” (AGI Therapeutics Research Ltd., priority 2007, published 2008)
Where a name gives a salt, the structure may show the parent alone.

Experiments:
[1] = tested on: patients with functional diarrhea; experiment: Clinical study, randomized double-blind placebo-controlled forced dose escalation, 12 weeks; assay type: in vivo, human
Description: While functional diarrhea is a condition dominated by altered lower bowel function associated with chronic diarrhea, it is also associated with upper gastrointestinal related symptoms such as nausea. For instance, patients suffering from similar lower bowel functional conditions such as IBS ([…]) have a reported incidence of nausea of 32%-other conditions also have relatively high baseline incidences of nausea, i.e., functional dyspepsia 39%, oesophagitis 17%, duodenal ulcer 34%, gastric ulcer 39%, gallstone disease 28%, alcohol related dyspepsia 37%, and gastric cancer 48%. […], ABC of the Upper Gastrointestinal Tract Anorexia, Nausea, Vomiting and Pain, 323 BMJ (8 Dec. 2001). […] Eighty-two patients (both male and female) meeting ROME II criteria (modified) for Functional Diarrhea were randomized in the study. Using an intent-to-treat analysis and the entire 12 weeks of dose-escalation therapy, the incidence of nausea in the placebo group was 20%, indicating a relatively high baseline of nausea for that condition.

[2] = Pharmacokinetics of oral conventional formulation in adults (Young et al.); assay type: in vivo, human
Description: Bear et al., Am. J. Physiol., 186, 180-86 (1956). […] Young et al., Clinical Therapeutics, 23(4) (2001). […] The typical dose used for treating hypertensive subjects is about 25 mg/day, and is dosed using conventional formulations.

[3] = cited from earlier work
[4] = expected from Young et al. data, conventional formulation
[5] = 2.5 mg dose, conventional formulation, adults
[6] = 7.5 mg dose, conventional formulation, adults

expected peak plasma concentration ([2]; about 25 mg/day dose for hypertensive subjects, conventional formulations)	24 hour plasma concentration level as share of peak plasma concentration [2, 4]	time for which about 50% of the peak plasma concentration is maintained [2, 4]	Compound	changes in blood pressure ([1]; FIGS. 1 and 2, over the course of the study)	incidence of nausea ([1]; intent-to-treat, entire 12 weeks, once daily 2 then 4 then 6 mg/day, placebo 20%) [%]	maximum plasma concentration (Cmax) [3, 5]	time to achieve the highest plasma concentration (Tmax) [3, 5] [h]	Cmax [3, 6] [ng/mL]	Tmax [3, 6] [h]	absorption from the gastrointestinal tract ([3]; dosed orally, conventional formulations (Bear et al.))
about 78.9 ng/mL	less than 25%	about 14 hours	CNC1(C)C2CCC(C2)C1(C)C (racemic) [mecamylamine]	no clinically significant changes	9	–	–	–	–	–
–	–	–	CNC1(C)C2CCC(C2)C1(C)C (stereo not shown) [mecamylamine hydrochloride, N-2,3,3-tetramethylbicyclo[2.2.1]heptan-2-amine hydrochloride]	–	–	about 7.89 ng/mL	3.11	23.68	3.04	nearly completely and rapidly absorbed
